# From US5883091A, “1,3,4-oxadiazine derivatives having a pesticide effect” (priority 1994, dated 1999)
# Test system: two-spotted spider mite (Tetranychus urticae)
# Test: Tetranychus-Test (OP resistant/spray treatment)
# Type: in vivo
# Details: Tetranychus urticae, 120 h; after 5 days; active compound concentration 0.001%; OP resistant; spray treatment of infested bean plants; 100% = all spider mites destroyed, 0% = none destroyed; read-out: destruction of spider mites (action in %)
# Protocol: Tetranychus-Test (OP resistant/spray treatment)
# Solvent: 3 parts by weight of dimethylformamide
# Emulsifier: 1 part by weight of alkylaryl polyglycol ether
# To prepare a suitable preparation of active compound, 1 part by weight of active compound is mixed with the stated amount of solvent and the stated amount of emulsifier, and the concentrate is diluted with water to the desired concentrations.
# Bean plants (Phaseolus vulgaris) which are severely infested with all stages of the two-spotted spider mite (Teiranychus urticae) are sprayed with a preparation of active compound of the desired concentration.
# After the desired time, the action is determined in %. 100% means that all spider mites have been destroyed; 0% means that no spider mites have been destroyed.
row,Structure (SMILES),mortality at 0.001 % [%]
1,"Fc1cccc(F)c1C1=NN(c2ccc(-c3ccc(OC(F)(F)F)cc3)cc2)CCO1 [Example 3, 4-[4-(4-trifluoromethoxyphenyl)phenyl]-2-(2,6-difluorophenyl)-4H-5,6-dihydro-1,3,4-oxadiazine]",95
2,"CC(C)(C)c1ccc(CN2CCOC(c3c(F)cccc3F)=N2)cc1 [Example 4, 2-(2,6-difluorophenyl)-4-(4-tert-butylbenzyl)-4H-5,6-dihydro-1,3,4-oxadiazine]",98

# Same assay, conditions: after 5 days; active compound concentration 0.001%; OP resistant; spray treatment of infested bean plants; 100% = all spider mites destroyed, 0% = none destroyed
row,Structure (SMILES),destruction of spider mites (action in %)
1,"FCCN1CCOC(c2ccc(Br)cc2)=N1 [A, 2-(4-Bromophenyl)-4-(2-fluoroeth-1-yl)-4H-5,6-dihydro-1,3,4-oxadiazine, reference compound]",no action

# Test system: not listed separately
# Test: log p (pH 2), physical constants
# Type: physicochemical
# Details: not given
row,Structure (SMILES),logD
1,Clc1ccc(C2=NN(Cc3ccc(Oc4ccccc4)cc3)CCO2)c(Cl)c1 [Example 18],5.61
2,FC(F)(F)c1ccc(Oc2ccc(CN3CCOC(c4cc(Cl)ccc4Cl)=N3)cc2)c(Cl)c1 [Example 19],6.35
3,Brc1ccc(CN2CCOC(c3cccs3)=N2)cc1 [Example 20],4.26
4,Fc1cccc(F)c1C1=NN(Cc2cc(Cl)c(OCc3ccc(Cl)cc3)c(Cl)c2)CCO1 [Example 21],5.67
5,Fc1cccc(F)c1C1=NN(Cc2ccc(Br)cc2)CCO1 [Example 22],4.03
6,FC(F)(F)Oc1ccc(-c2ccc(CN3CCOC(c4cccs4)=N3)cc2)cc1 [Example 23],5.41
7,Clc1ccc(COc2c(Cl)cc(CN3CCOC(c4cccs4)=N3)cc2Cl)cc1 [Example 24],5.95
8,Clc1ccc(Cl)c(C2=NN(Cc3cccc(Oc4ccccc4)c3)CCO2)c1 [Example 25],5.57
9,FC(F)(F)c1ccc(C2=NN(Cc3ccc(Oc4ccc(C(F)(F)F)cc4Cl)cc3)CCO2)cc1 [Example 26],6.44
10,Fc1ccc(CN2CCOC(c3ccc(Cl)c(Cl)c3)=N2)cc1Oc1ccccc1 [Example 27],6.13

# The next lines start with the values.
row,logD,Structure (SMILES)
1,5.15,Fc1cccc(F)c1C1=NN(Cc2ccc(-c3ccc(OC(F)(F)F)cc3)cc2)CCO1 [Example 29]
2,4.49,Fc1cccc(F)c1C1=NN(Cc2ccc(-c3ccccc3)cc2)CCO1 [Example 30]
3,6.43,FC(F)(F)c1cccc(C2=NN(Cc3ccc(Oc4ccc(C(F)(F)F)cc4Cl)cc3)CCO2)c1 [Example 31]
4,4.73,Fc1ccc(C2=NN(Cc3ccc(Br)cc3)CCO2)cc1 [Example 32]
5,5.41,Fc1ccc(CN2CCOC(c3cc(Cl)ccc3Cl)=N2)cc1Oc1ccccc1 [Example 33]
6,6.47,Clc1cc(Cl)cc(C2=NN(Cc3ccc(Br)cc3)CCO2)c1 [Example 34]
7,4.8,Fc1cccc(C2=NN(Cc3ccc(Br)cc3)CCO2)c1 [Example 35]
8,5.87,Fc1cccc(C2=NN(Cc3ccc(-c4ccc(OC(F)(F)F)cc4)cc3)CCO2)c1 [Example 36]
9,7.36,FC(F)(F)Oc1ccc(-c2ccc(CN3CCOC(c4cc(Cl)cc(Cl)c4)=N3)cc2)cc1 [Example 37]
10,3.38,Fc1cccc(F)c1C1=NN(Cc2ccccc2)CCO1 [Example 38]
